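These data come from cells grown in 96-well plates and exposed to compound for 48 hours at five concentrations. GI50: concentration for 50% inhibition of growth.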 Activity calls are given as the source filed them. No stated cut-off is given here; in the data, active = GI50 up to about 1.1 µM and inactive = higher.
Assays:
Assay in all cases: inhibition of tumour cell growth, NCI panel, 48 h
786-0 = test system: 786-0
A498 = test system: A498
A549 = test system: A549
ACHN = test system: ACHN
BT-549 = test system: BT-549
CAKI-1 = test system: CAKI-1
CCRF-CEM = test system: CCRF-CEM
COLO 205 = test system: COLO 205
DU-145 = test system: DU-145
EKVX = test system: EKVX
HCC 2998 = test system: HCC 2998
HCT-116 = test system: HCT-116
HCT-15 = test system: HCT-15
HL-60 = test system: HL-60
HOP-62 = test system: HOP-62
HOP-92 = test system: HOP-92
HT-29 = test system: HT-29
Hs-578T = test system: Hs-578T
IGROV-1 = test system: IGROV-1
K562 = test system: K562
KM12 = test system: KM12
LOX IMVI = test system: LOX IMVI
M14 = test system: M14
MCF7 = test system: MCF7
MDA-MB-231 = test system: MDA-MB-231
MDA-MB-435 = test system: MDA-MB-435
MDA-N = test system: MDA-N
MOLT-4 = test system: MOLT-4
Malme-3M = test system: Malme-3M
NCI-H23 = test system: NCI-H23
NCI-H460 = test system: NCI-H460
NCI-H522 = test system: NCI-H522
NCI/ADR-RES = test system: NCI/ADR-RES
OVCAR-3 = test system: OVCAR-3
OVCAR-5 = test system: OVCAR-5
OVCAR-8 = test system: OVCAR-8
PC-3 = test system: PC-3
RPMI-8226 = test system: RPMI-8226
RXF 393 = test system: RXF 393
SF-268 = test system: SF-268
SF-295 = test system: SF-295
SF-539 = test system: SF-539
SK-MEL-28 = test system: SK-MEL-28
SK-MEL-2 = test system: SK-MEL-2
SK-MEL-5 = test system: SK-MEL-5
SK-OV-3 = test system: SK-OV-3
SN12C = test system: SN12C
SNB-19 = test system: SNB-19
SNB-75 = test system: SNB-75
SR = test system: SR
SW-620 = test system: SW-620
T47D = test system: T47D
TK-10 = test system: TK-10
U-251 = test system: U-251
UACC-257 = test system: UACC-257
UACC-62 = test system: UACC-62
UO-31 = test system: UO-31
OVCAR-4 = test system: OVCAR-4
NCI-H226 = test system: NCI-H226

Measured: GI50

O=[N+]([O-])c1ccc(/C=C\c2ccc3c(c2)OCO3)c([N+](=O)[O-])c1
inactive: 786-0 16.9 µM | A498 19 µM | A549 20.1 µM | ACHN 16.6 µM | BT-549 16.4 µM | CAKI-1 25 µM | CCRF-CEM 18.2 µM | COLO 205 18.4 µM | DU-145 18.3 µM | EKVX 13 µM | HCC 2998 14.5 µM | HCT-116 5.53 µM | HL-60 17.4 µM | HOP-62 25.1 µM | HOP-92 21.2 µM | HT-29 19.9 µM | Hs-578T 16.8 µM | IGROV-1 12.2 µM | K562 21.3 µM | KM12 15.3 µM | LOX IMVI 13.4 µM | M14 15.3 µM | MCF7 1.86 µM | MDA-MB-231 17.2 µM | MDA-MB-435 8.43 µM | MDA-N 5.52 µM | MOLT-4 17.5 µM | Malme-3M 19.7 µM | NCI-H23 21.7 µM | NCI-H460 19.5 µM | NCI-H522 12.7 µM | NCI/ADR-RES 29.2 µM | OVCAR-3 18.2 µM | OVCAR-5 18.7 µM | OVCAR-8 19 µM | PC-3 24.8 µM | RPMI-8226 4.39 µM | SF-268 23 µM | SF-295 23 µM | SF-539 20 µM | SK-MEL-28 17.1 µM | SK-MEL-2 18.3 µM | SK-MEL-5 19 µM | SK-OV-3 18.7 µM | SN12C 17.5 µM | SNB-19 17.3 µM | SNB-75 17.7 µM | SR 8 µM | SW-620 17.1 µM | T47D 44.1 µM | TK-10 17.3 µM | U-251 14.2 µM | UACC-257 17.3 µM | UACC-62 18.7 µM | UO-31 19.9 µM
active: RXF 393 0.0316 µM
14.6 µM: HCT-15

C#CCN(Cc1ccc2nc(-c3ccccc3)c(Cl)nc2c1)c1ccc(F)cc1
87.1 µM: HCT-15
active: MOLT-4 0.767 µM
inactive: 786-0 > 100 µM | A498 > 100 µM | A549 > 100 µM | ACHN 71.9 µM | BT-549 > 100 µM | CAKI-1 > 100 µM | CCRF-CEM 17.5 µM | COLO 205 51.3 µM | DU-145 95.7 µM | EKVX > 100 µM | HCC 2998 > 100 µM | HCT-116 > 100 µM | HL-60 15.1 µM | HOP-62 > 100 µM | HOP-92 47 µM | HT-29 61.9 µM | Hs-578T > 100 µM | IGROV-1 > 100 µM | KM12 > 100 µM | LOX IMVI > 100 µM | M14 > 100 µM | MCF7 63.8 µM | MDA-MB-231 > 100 µM | MDA-MB-435 > 100 µM | MDA-N > 100 µM | Malme-3M > 100 µM | NCI-H23 71.6 µM | NCI-H460 > 100 µM | NCI-H522 40.6 µM | NCI/ADR-RES > 100 µM | OVCAR-3 > 100 µM | OVCAR-4 59.8 µM | OVCAR-5 > 100 µM | OVCAR-8 > 100 µM | PC-3 > 100 µM | RPMI-8226 39.7 µM | SF-268 > 100 µM | SF-295 > 100 µM | SF-539 > 100 µM | SK-MEL-28 > 100 µM | SK-MEL-2 > 100 µM | SK-MEL-5 23.1 µM | SN12C > 100 µM | SNB-19 > 100 µM | SNB-75 > 100 µM | SR 45.8 µM | SW-620 > 100 µM | T47D 38 µM | TK-10 > 100 µM | U-251 > 100 µM | UACC-257 > 100 µM | UACC-62 > 100 µM | UO-31 80.7 µM

OC1(c2ccc(Cl)cc2)c2ccccc2-c2nc3ccccc3n21 (stereo not given)
inactive: 786-0 49.2 µM | A498 > 100 µM | A549 52.7 µM | ACHN > 100 µM | BT-549 > 100 µM | CAKI-1 > 100 µM | CCRF-CEM > 100 µM | COLO 205 > 100 µM | DU-145 79.4 µM | EKVX 84.7 µM | HCC 2998 74 µM | HCT-116 90.4 µM | HL-60 58.9 µM | HOP-62 37.8 µM | HOP-92 > 100 µM | HT-29 72.6 µM | Hs-578T > 100 µM | IGROV-1 73.5 µM | K562 > 100 µM | KM12 > 100 µM | LOX IMVI > 100 µM | M14 > 100 µM | MCF7 95.3 µM | MDA-MB-231 > 100 µM | MDA-MB-435 > 100 µM | MDA-N > 100 µM | MOLT-4 > 100 µM | NCI-H226 45.9 µM | NCI-H23 89.3 µM | NCI-H460 65.8 µM | NCI-H522 66.8 µM | NCI/ADR-RES 67.1 µM | OVCAR-3 48.4 µM | OVCAR-4 > 100 µM | OVCAR-5 > 100 µM | OVCAR-8 82.8 µM | PC-3 44.3 µM | RPMI-8226 49.3 µM | RXF 393 29.2 µM | SF-268 > 100 µM | SF-295 97.9 µM | SF-539 > 100 µM | SK-MEL-28 > 100 µM | SK-MEL-2 39.3 µM | SK-MEL-5 > 100 µM | SK-OV-3 49 µM | SN12C > 100 µM | SNB-19 51.6 µM | SNB-75 > 100 µM | SR 74.5 µM | SW-620 > 100 µM | T47D > 100 µM | TK-10 > 100 µM | U-251 > 100 µM | UACC-257 > 100 µM | UACC-62 > 100 µM | UO-31 > 100 µM
> 100 µM: HCT-15

From ChEMBL document CHEMBL1201862, “PubChem BioAssay data set” (2004)
